Assay results: US8198456B2, “Dihydropyridine derivatives as useful as protein kinase inhibitors” (Bayer Intellectual Property GmbH, priority 2006, dated 2012)

Legend:
[1] = molecular target: T1, recombinant human c-MET kinase enzyme domain (Homo sapiens, UniProt P08581); assay: c-MET receptor tyrosine kinase Homogeneous Time Resolved Fluorescence assay (HTRF); assay type: biochemical; conditions: Biological Example 1 and/or Biological Example 2
T1 construct: Recombinant c-Met kinase domain (amino acids 960-1390); His (N); made in house; host or cells: baculovirus expression system (insect cells; SF21 is named only for the alternative format)
T1 sequence (P08581 960-1390): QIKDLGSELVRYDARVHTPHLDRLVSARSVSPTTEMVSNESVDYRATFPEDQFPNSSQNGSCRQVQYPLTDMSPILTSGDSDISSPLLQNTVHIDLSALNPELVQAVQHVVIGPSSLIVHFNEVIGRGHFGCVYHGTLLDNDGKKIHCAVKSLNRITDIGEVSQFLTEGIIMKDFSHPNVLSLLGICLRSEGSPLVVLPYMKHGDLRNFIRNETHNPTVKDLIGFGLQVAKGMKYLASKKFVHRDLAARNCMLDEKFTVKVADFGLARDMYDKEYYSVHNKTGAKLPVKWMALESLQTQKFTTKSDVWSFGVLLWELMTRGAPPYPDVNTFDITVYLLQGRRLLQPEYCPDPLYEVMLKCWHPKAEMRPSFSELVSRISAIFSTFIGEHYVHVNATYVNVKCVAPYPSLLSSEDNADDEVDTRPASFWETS
How it was run: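 His-tagged c-Met kinase domain (aa 960-1390, baculovirus) phosphorylated biotinylated poly-Glu-Tyr (37 nM) with 20 μM ATP in HEPES pH 7.4, Mg/Mn, DTT, 1% DMSO, 20 min at ambient temperature, EDTA-stopped. HTRF read (PT66-Eu/streptavidin-XL665, 665/620 nm ratio) after 4 h; IC50 from eight 1:3.16 dilutions.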

## CCNc1n[nH]c2ccc(C3C(C#N)=C(C)NC(C)=C3C#N)cc12 [compound 121, 4-[3-(ethylamino)-1H-indazol-5-yl]-1,4-dihydro-2,6-dimethyl-3,5-pyridinedicarbonitrile]
other
  melting point: 247.6 °C
[1]
  IC50: < 0.1 µM

## CC1=C(C#N)C(c2ccc3[nH]nc(NCCN4CCCC4)c3c2)C(C#N)=C(C)N1 [compound 309, 1,4-dihydro-2,6-dimethyl-4-[3-[[2-(1-pyrrolidinyl)ethyl]amino]-1H-indazol-5-yl]-3,5-pyridinedicarbonitrile]
[1]
  IC50: < 0.1 µM
